Experimental data reported in paper PMC9067983, “Identification of highly selective type II kinase inhibitors with chiral peptidomimetic tails” (Journal of Enzyme Inhibition and Medicinal Chemistry, 2022).
Where a SMILES comes first, the peptide text is derived from it. [ ]: non-standard residue; d: D form. The star is where a group is joined. X1 = Cc1ccc(Nc2ncc3c(n2)N(C)C(=O)N(c2cc(C(=O)*)ccc2C)C3)cn1; Aib = CC(C)(N)C(=O)O

Columns and labels:
Assay in all cases: kinase selectivity profiling
Type in all cases: biochemical
Settings in all cases: 10µM ATP, read-out: % inhibition (relative to DMSO)
SYK = biological target: T1, SYK (Homo sapiens, UniProt P43405)
T1 construct: purchased Reaction Biology Corp
Description: (§1) Full panel kinase profiling and kinase IC50 measurement were performed by using Reaction Biology Corp. (San Diego, USA).

FER = biological target: T2, FER (Homo sapiens, UniProt P16591)
T2 construct: purchased Reaction Biology Corp
Description: as §1

MASTL = biological target: T3, MASTL (Homo sapiens, UniProt Q96GX5)
T3 construct: purchased Reaction Biology Corp
Description: as §1

MLK1/MAP3K9 = biological target: T4, MLK1/MAP3K9 (Homo sapiens, UniProt P80192)
T4 construct: purchased Reaction Biology Corp
Description: as §1

ERN2/IRE2 = biological target: T5, ERN2/IRE2 (Homo sapiens, UniProt Q76MJ5)
T5 construct: purchased Reaction Biology Corp
Description: as §1

MKK4 = biological target: T6, MKK4 (Homo sapiens, UniProt P45985)
T6 construct: purchased Reaction Biology Corp
Description: as §1

CDK3/cyclin E = biological target: T7, CDK3/cyclin E (Homo sapiens, UniProt Q00526)
T7 construct: purchased Reaction Biology Corp
Description: as §1

PAK2 = biological target: T8, PAK2 (Homo sapiens, UniProt Q13177)
T8 construct: purchased Reaction Biology Corp
Description: as §1

MSK1/RPS6KA5 = biological target: T9, MSK1/RPS6KA5 (Homo sapiens, UniProt O75582)
T9 construct: purchased Reaction Biology Corp
Description: as §1

CDK9/cyclin T2 = biological target: T10, CDK9/cyclin T2 (Homo sapiens, UniProt P50750)
T10 construct: purchased Reaction Biology Corp
Description: as §1

Blk = biological target: T11, Blk (Homo sapiens, UniProt P51451)
T11 construct: purchased Reaction Biology Corp
Description: as §1

PKG1a = biological target: T12, PKG1a (Homo sapiens, UniProt Q13976)
T12 construct: purchased Reaction Biology Corp
Description: as §1

CHK2 = biological target: T13, CHK2 (Homo sapiens, UniProt O96017)
T13 construct: purchased Reaction Biology Corp
Description: as §1

STK33 = biological target: T14, STK33 (Homo sapiens, UniProt Q9BYT3)
T14 construct: purchased Reaction Biology Corp
Description: as §1

FMS = biological target: T15, FMS (Homo sapiens, UniProt P07333)
T15 construct: purchased Reaction Biology Corp
Description: as §1

KHS/MAP4K5 = biological target: T16, KHS/MAP4K5 (Homo sapiens, UniProt Q9Y4K4)
T16 construct: purchased Reaction Biology Corp
Description: as §1

CDK9/cyclin K = biological target: T17, CDK9/cyclin K (Homo sapiens, UniProt P50750)
T17 construct: purchased Reaction Biology Corp
Description: as §1

TIE2/TEK = biological target: T18, TIE2/TEK (Homo sapiens, UniProt Q02763)
T18 construct: purchased Reaction Biology Corp
Description: as §1

ULK3 = biological target: T19, ULK3 (Homo sapiens, UniProt Q6PHR2)
T19 construct: purchased Reaction Biology Corp
Description: as §1

DAPK1 = biological target: T20, DAPK1 (Homo sapiens, UniProt P53355)
T20 construct: purchased Reaction Biology Corp
Description: as §1

TAOK1 = biological target: T21, TAOK1 (Homo sapiens, UniProt Q7L7X3)
T21 construct: purchased Reaction Biology Corp
Description: as §1

GRK1 = biological target: T22, GRK1 (Homo sapiens, UniProt Q15835)
T22 construct: purchased Reaction Biology Corp
Description: as §1

NEK2 = biological target: T23, NEK2 (Homo sapiens, UniProt P51955)
T23 construct: purchased Reaction Biology Corp
Description: as §1

SBK1 = biological target: T24, SBK1 (Homo sapiens, UniProt Q52WX2)
T24 construct: purchased Reaction Biology Corp
Description: as §1

BRSK1 = biological target: T25, BRSK1 (Homo sapiens, UniProt Q8TDC3)
T25 construct: purchased Reaction Biology Corp
Description: as §1

MLCK2/MYLK2 = biological target: T26, MLCK2/MYLK2 (Homo sapiens, UniProt Q9H1R3)
T26 construct: purchased Reaction Biology Corp
Description: as §1

GSK3b = biological target: T27, GSK3b (Homo sapiens, UniProt P49841)
T27 construct: purchased Reaction Biology Corp
Description: as §1

CK2a = biological target: T28, CK2a (Homo sapiens, UniProt P68400)
T28 construct: purchased Reaction Biology Corp
Description: as §1

AKT2 = biological target: T29, AKT2 (Homo sapiens, UniProt P31751)
T29 construct: purchased Reaction Biology Corp
Description: as §1

RET = biological target: T30, RET (Homo sapiens, UniProt P07949)
T30 construct: purchased Reaction Biology Corp
Description: as §1

TNIK = biological target: T31, TNIK (Homo sapiens, UniProt Q9UKE5)
T31 construct: purchased Reaction Biology Corp
Description: as §1

DYRK4 = biological target: T32, DYRK4 (Homo sapiens, UniProt Q9NR20)
T32 construct: purchased Reaction Biology Corp
Description: as §1

IGF1R = biological target: T33, IGF1R (Homo sapiens, UniProt P08069)
T33 construct: purchased Reaction Biology Corp
Description: as §1

CDK5/P25 = biological target: T34, CDK5/P25 (Homo sapiens, UniProt Q00535)
T34 construct: purchased Reaction Biology Corp
Description: as §1

MARK3 = biological target: T35, MARK3 (Homo sapiens, UniProt P27448)
T35 construct: purchased Reaction Biology Corp
Description: as §1

EPHA8 = biological target: T36, EPHA8 (Homo sapiens, UniProt P29322)
T36 construct: purchased Reaction Biology Corp
Description: as §1

ITK = biological target: T37, ITK (Homo sapiens, UniProt Q08881)
T37 construct: purchased Reaction Biology Corp
Description: as §1

DMPK = biological target: T38, DMPK (Homo sapiens, UniProt Q09013)
T38 construct: purchased Reaction Biology Corp
Description: as §1

PKD2/PRKD2 = biological target: T39, PKD2/PRKD2 (Homo sapiens, UniProt Q9BZL6)
T39 construct: purchased Reaction Biology Corp
Description: as §1

PKCa = biological target: T40, PKCa (Homo sapiens, UniProt P17252)
T40 construct: purchased Reaction Biology Corp
Description: as §1

TNK1 = biological target: T41, TNK1 (Homo sapiens, UniProt Q13470)
T41 construct: purchased Reaction Biology Corp
Description: as §1

STK21/CIT = biological target: T42, STK21/CIT (Homo sapiens, UniProt O14578)
T42 construct: purchased Reaction Biology Corp
Description: as §1

PKCeta = biological target: T43, PKCeta (Homo sapiens, UniProt P24723)
T43 construct: purchased Reaction Biology Corp
Description: as §1

Measured: inhibition at 1 µM

T32 sequence (Q9NR20 whole entry): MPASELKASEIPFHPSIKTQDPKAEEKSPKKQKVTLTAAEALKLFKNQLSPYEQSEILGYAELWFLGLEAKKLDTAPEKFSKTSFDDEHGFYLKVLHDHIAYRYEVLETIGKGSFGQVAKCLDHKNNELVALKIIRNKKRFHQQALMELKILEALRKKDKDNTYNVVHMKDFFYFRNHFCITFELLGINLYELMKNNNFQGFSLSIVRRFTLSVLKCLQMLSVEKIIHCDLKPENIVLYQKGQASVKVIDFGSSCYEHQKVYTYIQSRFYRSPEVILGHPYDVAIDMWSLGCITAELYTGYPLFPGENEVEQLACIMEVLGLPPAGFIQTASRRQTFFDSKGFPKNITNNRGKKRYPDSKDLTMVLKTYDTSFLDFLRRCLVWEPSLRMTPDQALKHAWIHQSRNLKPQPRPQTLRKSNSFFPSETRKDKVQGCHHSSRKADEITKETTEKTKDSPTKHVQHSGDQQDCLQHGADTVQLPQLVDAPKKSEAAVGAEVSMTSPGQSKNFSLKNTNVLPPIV
T18 sequence (Q02763 23-1124): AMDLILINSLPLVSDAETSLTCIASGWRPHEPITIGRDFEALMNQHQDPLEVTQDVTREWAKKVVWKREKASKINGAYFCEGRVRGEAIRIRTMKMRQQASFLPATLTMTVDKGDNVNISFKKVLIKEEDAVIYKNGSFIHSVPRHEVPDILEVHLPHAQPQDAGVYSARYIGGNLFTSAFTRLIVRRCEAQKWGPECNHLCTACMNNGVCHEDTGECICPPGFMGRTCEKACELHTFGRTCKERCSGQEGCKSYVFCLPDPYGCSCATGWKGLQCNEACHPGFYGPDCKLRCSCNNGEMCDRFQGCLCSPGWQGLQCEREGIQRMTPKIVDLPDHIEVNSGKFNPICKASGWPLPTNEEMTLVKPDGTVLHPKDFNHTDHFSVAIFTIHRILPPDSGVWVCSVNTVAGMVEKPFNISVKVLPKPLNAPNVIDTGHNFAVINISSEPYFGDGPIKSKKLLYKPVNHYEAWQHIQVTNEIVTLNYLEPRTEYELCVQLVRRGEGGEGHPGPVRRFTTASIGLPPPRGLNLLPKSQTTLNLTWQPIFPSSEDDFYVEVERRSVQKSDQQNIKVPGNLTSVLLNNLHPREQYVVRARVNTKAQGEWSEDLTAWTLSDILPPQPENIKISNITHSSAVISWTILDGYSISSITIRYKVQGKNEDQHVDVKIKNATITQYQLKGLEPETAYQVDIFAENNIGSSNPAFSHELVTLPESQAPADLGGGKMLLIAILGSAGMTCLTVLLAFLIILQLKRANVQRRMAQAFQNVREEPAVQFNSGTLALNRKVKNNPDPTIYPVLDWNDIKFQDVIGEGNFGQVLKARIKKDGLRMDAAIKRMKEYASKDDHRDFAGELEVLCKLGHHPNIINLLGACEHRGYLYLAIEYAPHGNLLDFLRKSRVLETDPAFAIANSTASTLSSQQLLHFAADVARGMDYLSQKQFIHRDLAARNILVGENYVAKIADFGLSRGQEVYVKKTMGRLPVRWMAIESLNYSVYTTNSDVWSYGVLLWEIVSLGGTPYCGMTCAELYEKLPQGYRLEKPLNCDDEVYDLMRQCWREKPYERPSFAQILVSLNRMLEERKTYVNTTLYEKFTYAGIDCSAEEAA
T4 sequence (P80192 whole entry): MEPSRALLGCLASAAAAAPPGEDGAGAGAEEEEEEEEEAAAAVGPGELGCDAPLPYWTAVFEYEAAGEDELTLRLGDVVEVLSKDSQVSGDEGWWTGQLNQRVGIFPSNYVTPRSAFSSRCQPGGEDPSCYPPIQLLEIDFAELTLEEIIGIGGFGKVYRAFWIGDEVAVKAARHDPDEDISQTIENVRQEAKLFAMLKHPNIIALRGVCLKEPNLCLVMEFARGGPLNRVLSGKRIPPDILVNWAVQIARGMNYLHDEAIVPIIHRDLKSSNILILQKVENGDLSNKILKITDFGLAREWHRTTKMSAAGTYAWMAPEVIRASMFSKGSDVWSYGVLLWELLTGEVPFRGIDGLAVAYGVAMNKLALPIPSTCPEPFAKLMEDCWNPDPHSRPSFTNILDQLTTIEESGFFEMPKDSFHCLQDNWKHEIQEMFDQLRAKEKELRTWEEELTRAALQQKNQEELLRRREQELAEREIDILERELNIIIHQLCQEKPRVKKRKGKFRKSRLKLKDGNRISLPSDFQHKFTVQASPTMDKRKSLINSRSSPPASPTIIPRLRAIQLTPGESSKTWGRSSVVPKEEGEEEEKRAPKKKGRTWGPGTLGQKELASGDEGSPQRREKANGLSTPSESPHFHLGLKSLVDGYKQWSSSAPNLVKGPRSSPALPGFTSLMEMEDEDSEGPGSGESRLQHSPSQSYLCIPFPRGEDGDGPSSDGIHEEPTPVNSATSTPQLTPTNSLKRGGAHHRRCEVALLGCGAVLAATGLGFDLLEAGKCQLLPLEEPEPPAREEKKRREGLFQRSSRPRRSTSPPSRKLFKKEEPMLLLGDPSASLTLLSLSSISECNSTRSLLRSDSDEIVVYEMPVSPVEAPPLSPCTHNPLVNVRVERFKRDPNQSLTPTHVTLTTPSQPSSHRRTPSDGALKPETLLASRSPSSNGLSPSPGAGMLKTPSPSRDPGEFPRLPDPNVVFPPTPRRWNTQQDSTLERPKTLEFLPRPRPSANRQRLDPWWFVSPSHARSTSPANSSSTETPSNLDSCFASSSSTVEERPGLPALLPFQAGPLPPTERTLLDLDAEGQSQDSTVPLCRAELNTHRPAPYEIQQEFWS
T20 sequence (P53355 whole entry): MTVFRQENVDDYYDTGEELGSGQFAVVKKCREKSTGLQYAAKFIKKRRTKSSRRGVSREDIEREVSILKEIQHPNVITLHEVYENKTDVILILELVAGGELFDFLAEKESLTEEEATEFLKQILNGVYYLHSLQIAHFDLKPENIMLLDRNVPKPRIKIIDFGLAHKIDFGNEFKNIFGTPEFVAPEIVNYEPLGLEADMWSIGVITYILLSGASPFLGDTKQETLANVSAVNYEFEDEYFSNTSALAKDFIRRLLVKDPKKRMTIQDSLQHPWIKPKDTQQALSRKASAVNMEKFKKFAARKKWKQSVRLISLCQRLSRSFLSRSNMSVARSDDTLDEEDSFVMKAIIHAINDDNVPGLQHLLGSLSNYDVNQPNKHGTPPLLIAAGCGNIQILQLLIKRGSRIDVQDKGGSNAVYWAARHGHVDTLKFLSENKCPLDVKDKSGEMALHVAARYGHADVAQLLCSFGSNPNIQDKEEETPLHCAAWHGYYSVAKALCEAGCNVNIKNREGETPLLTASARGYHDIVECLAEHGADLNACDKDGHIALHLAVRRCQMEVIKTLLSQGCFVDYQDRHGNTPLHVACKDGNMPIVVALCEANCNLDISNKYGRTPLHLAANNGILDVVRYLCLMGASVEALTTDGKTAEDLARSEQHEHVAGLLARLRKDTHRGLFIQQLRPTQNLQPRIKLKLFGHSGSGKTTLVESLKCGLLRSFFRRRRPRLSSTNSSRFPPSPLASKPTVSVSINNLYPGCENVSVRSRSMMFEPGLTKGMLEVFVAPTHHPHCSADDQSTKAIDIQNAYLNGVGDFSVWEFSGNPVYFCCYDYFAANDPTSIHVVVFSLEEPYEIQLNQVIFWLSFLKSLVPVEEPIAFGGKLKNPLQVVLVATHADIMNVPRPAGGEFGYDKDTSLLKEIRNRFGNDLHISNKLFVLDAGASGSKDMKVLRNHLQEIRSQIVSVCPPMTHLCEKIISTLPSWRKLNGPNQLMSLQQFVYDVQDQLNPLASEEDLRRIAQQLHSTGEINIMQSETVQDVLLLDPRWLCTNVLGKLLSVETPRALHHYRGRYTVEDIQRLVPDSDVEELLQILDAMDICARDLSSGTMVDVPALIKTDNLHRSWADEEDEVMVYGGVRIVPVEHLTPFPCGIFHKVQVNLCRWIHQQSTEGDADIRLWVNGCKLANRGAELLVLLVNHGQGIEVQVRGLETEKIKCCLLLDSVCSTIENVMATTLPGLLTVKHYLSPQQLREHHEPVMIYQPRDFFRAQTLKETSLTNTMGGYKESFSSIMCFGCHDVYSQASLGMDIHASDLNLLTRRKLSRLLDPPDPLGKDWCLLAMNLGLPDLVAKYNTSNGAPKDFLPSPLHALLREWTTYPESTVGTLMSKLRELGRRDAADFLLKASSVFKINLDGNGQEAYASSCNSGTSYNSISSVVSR
T24 sequence (Q52WX2 whole entry): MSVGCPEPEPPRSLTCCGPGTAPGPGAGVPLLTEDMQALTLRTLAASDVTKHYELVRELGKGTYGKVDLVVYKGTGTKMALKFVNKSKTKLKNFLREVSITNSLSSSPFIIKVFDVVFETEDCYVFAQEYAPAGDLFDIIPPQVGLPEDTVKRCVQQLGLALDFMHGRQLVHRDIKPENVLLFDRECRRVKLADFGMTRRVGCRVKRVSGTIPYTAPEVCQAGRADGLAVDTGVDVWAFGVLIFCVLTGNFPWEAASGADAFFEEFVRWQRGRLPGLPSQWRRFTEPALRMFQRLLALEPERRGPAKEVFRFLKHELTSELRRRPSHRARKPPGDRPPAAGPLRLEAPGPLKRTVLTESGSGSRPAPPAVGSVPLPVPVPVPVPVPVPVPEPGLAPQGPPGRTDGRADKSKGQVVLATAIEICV
T29 sequence (P31751 whole entry): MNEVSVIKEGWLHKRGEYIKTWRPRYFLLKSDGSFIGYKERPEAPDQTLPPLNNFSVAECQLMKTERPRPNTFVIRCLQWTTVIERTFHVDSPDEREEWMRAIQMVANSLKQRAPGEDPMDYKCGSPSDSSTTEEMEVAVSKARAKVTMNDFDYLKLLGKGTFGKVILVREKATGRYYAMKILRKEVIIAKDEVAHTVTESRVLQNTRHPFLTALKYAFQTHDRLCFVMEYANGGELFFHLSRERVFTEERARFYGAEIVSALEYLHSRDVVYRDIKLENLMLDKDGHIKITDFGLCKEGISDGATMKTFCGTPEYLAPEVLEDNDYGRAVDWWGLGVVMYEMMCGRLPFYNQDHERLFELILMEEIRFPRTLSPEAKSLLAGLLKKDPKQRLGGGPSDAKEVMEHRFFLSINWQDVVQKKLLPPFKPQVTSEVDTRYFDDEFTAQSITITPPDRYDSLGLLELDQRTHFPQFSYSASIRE

Cc1ccc(Nc2ncc3c(n2)N(C)C(=O)N(c2cc(C(=O)N[C@H](C(=O)N4CCC[C@H]4C(=O)NC(C)(C)C(=O)N[C@@H](CC(C)C)C(=O)N(C)C)C(C)C)ccc2C)C3)cn1 [7a, (S)-N-(1-(((S)-1-(dimethylamino)-4-methyl-1-oxopentan-2-yl)amino)-2-methyl-1-oxopropan-2-yl)-1-((4-methyl-3-(1-methyl-7-((6-methylpyridin-3-yl)amino)-2-oxo-1,4-dihydropyrimido[4,5-d]pyrimidin-3(2H)-yl)benzoyl)-L-valyl)pyrrolidine-2-carboxamide] (X1-VP[Aib]L-NMe2)
7%: MASTL | ITK
33%: MLK1/MAP3K9
2%: ERN2/IRE2 | MKK4 | BRSK1 | TNK1
3%: DYRK4
60%: FMS
4%: CHK2 | MARK3
5%: CK2a
27%: PKCeta
6%: TNIK
9%: RET
73%: Blk
23%: KHS/MAP4K5
0%: all other assays above
